{
  "source": "patent US20250367218A1",
  "about": "“METHODS OF TREATING METABOLIC DISORDERS AND COMBINATION PRODUCTS FOR USE IN THE SAME” (INSTITUT PASTEUR DE MONTEVIDEO, priority 2024, published 2025)",
  "key": {"[1]": {"test": "Cumulative food intake of mice fed a high-fat diet (HFD)", "type": "in vivo, C57BL/6J mice", "conditions": "SANA 200 mg/kg/day PO continued after 1.5 weeks of concomitant SANA plus semaglutide 10 nmol/kg/day; FIG. 6D", "experimental": "(§1) All studies conducted in mice utilized C57BL/6J mice maintained at the Institut Pasteur de Montevideo Animal facility (UBAL). Experimental protocols were approved by the Institutional Animal Care and Use Committee of the Institut Pasteur de Montevideo (CEUA, Protocol numbers 003-19 and 006-19). Studies were performed according to the methods approved in the protocols. All the experiments were performed on adult male mice (10-12 weeks of age) and were conducted at either 22° C. with free access to food and water. Unless specified, mice were housed at 22° C. in groups of five.\nHigh-fat diet (HFD) feeding: Male C57BL/6J mice housed at 22° C. were fed a high-fat diet (42% fat and 0.25% cholesterol, AlN93G, LabDiet, USA), starting at 12 weeks of age and for a duration of 5 weeks prior to beginning administration of any active pharmaceutical ingredients. After the onset of the treatment, HFD ad libitum was maintained until the end of the experiments. […]\nA higher dose of SANA was then assessed for its ability to prevent the regain of weight in mice following discontinuation of GLP-1 treatment. […] The weight regain of the mice was monitored for another 1.5-6.5 weeks. *, **, ***, #, and ## show statistically significant differences, p<0.05, p<0.01, p<0.001, p<0.05, and p<0.01, respectively. […]"}, "[2]": {"test": "Blood glucose measurements: fasting/basal glucose and glucose tolerance test (GTT) in HFD mice", "type": "in vivo, C57BL/6J mice", "conditions": "SANA 200 mg/kg/day PO after discontinuation of concomitant SANA plus semaglutide, versus semaglutide 10 nmol/kg/day alone; FIGS. 6E, 6F", "experimental": "Blood glucose measurements: Mice were kept in fasting for 16 h before fasting glucose measurement and glucose tolerance tests (GTT). When performing GTT, mice were injected (IP) with 1.5 g/kg body weight of glucose solution. Plasma glucose concentrations were measured from blood obtained from the tail using a hand-held glucometer (Accu-Chek, Roche).\nGlucose tolerance (“GTT”), basal glucose, and glucose Area Under the Curve (“AUC”) were also measured following two weeks of treatment, and the results are presented graphically in FIGS. 2A, 2B, and 2C with * indicating a statistically significant difference, p<0.05.\nA higher dose of SANA was then assessed for its ability to prevent the regain of weight in mice following discontinuation of GLP-1 treatment. Referring to FIGS. 6B and 6C, mice were fed a high-fat diet for a period of 5.5 weeks, and then were untreated (HFD), treated with GLP-1 agonist (semaglutide, 10 nmol/kg/day—SC), or treated with semaglutide+SANA for a period of 1.5 weeks, at which time, the semaglutide treatment was ceased and the groups were treated only with SANA (200 mg/kg/day, PO). The weight regain of the mice was monitored for another 1.5-6.5 weeks. *, **, ***, #, and ## show statistically significant differences, p<0.05, p<0.01, p<0.001, p<0.05, and p<0.01, respectively. […]"}, "[3]": {"test": "Weight regain of HFD mice after discontinuation of treatment (rebound effect)", "type": "in vivo, C57BL/6J mice", "experimental": "Comparison of weight regain in mice following discontinuation of treatment with SANA or a GLP-1 agonist was measured in order to quantify the “rebound effect” as a result of discontinuing treatment. Mice were fed a high-fat diet for a period of 5 weeks, and were then untreated (HFD), treated with GLP-1 agonist (liraglutide, 0.2 mg/kg/day SC daily injection, LIRA), or treated with SANA (200 mg/kg/day PO) for a period of nine weeks. The high-fat diet was continued during the treatment period. Following week 9, all treatment was discontinued and weight regain in the mice was monitored through week 14.\nThe ability of SANA to prevent the regain of weight in mice following discontinuation of GLP-1 treatment was also assessed. Mice were fed a high-fat diet for a period of 5.5 weeks, and were then untreated (HFD), treated with GLP-1 agonist (semaglutide, 40 mg/kg s.c. every 3 days), or treated with semaglutide+SANA (10 mg/kg/day) for a period of 2.5 weeks. At week 8, except for the control group (HFD) all groups were treated only with SANA (10 mg/kg/day, s.c.).\nA higher dose of SANA was then assessed for its ability to prevent the regain of weight in mice following discontinuation of GLP-1 treatment. […] The weight regain of the mice was monitored for another 1.5-6.5 weeks. *, **, ***, #, and ## show statistically significant differences, p<0.05, p<0.01, p<0.001, p<0.05, and p<0.01, respectively."}, "[4]": {"test": "Serum non-esterified fatty acids (NEFA) in HFD mice", "type": "in vivo, C57BL/6J mice", "conditions": "4 weeks; SANA 200 mg/kg/day, semaglutide 2 nmol/kg/day, alone or combined; FIG. 7B", "experimental": "As described in Example 2A above, mice were fed with a high fat diet (HFD) for 5.5 weeks prior to the initiation of treatment, and the high-fat diet continued during the 4 week treatment period. Different doses of semaglutide were provided, either alone or in combination with SANA, and compared to SANA alone and untreated mice alone. Specifically, mice were either untreated (HFD) (n=5), or treated with SANA (200 mg/kg/day, n=5), semaglutide (0.25 nmol/kg/day, n=5), semaglutide (2 nmol/kg/day, n=4), a combination of SANA (200 mg/kg/day) and semaglutide (0.25 nmol/kg/day) (n=5), or a combination of SANA (200 mg/kg/day) and semaglutide (2 nmol/kg/day) (n=3).\nNext, different doses of SANA were tested, either alone or in combination with semaglutide, and compared to treatment with semaglutide alone and untreated mice. Specifically, as described in Example 2A above, mice were fed with a high fat diet (HFD) for 5.5 weeks prior to the initiation of treatment, and the high-fat diet continued during the 1.5-week treatment period. […]"}, "[5]": {"conditions": "cited from earlier work"}, "[6]": {"test": "Body weight of obese mice fed a high-fat diet (HFD) during treatment", "type": "in vivo, C57BL/6J mice", "experimental": "as §1\nHigh-fat diet (HFD) feeding: Male C57BL/6J mice housed at 22° C. were fed a high-fat diet (42% fat and 0.25% cholesterol, AlN93G, LabDiet, USA), starting at 12 weeks of age and for a duration of 5 weeks prior to beginning administration of any active pharmaceutical ingredients. After the onset of the treatment, HFD ad libitum was maintained until the end of the experiments.\nDrug delivery: SANA was administered orally (PO) by mixing with the food (50, 100, or 200 mg/kg/day), or subcutaneously (SC, 10, 15, or 20 mg/kg/day in 100 mM phosphate buffer, pH 6.5). In all cases the vehicle was used as control. Liraglutide (Novo Nordisk, Denmark) was administered daily, subcutaneously (SC, 0.2 mg/kg/day). Semaglutide (Ozempic®, Novo Nordisk, Denmark) was administered subcutaneously (SC, 2 nmol/kg/day or 40 mg/kg every 3 days).\nMice were fed with a high fat diet (HFD) for 5 weeks prior to the initiation of treatment, and the high-fat diet continued during a 2-week treatment period. FIGS. 1A-1B show graphs of average mouse weight without treatment (HFD, n=8), treatment with SANA (HFD+SANA, 200 mg/kg/day, n=9), treatment with liraglutide (HFD+LIRA, 0.2 mg/kg/day, n=8), or treatment with a combination of SANA (200 mg/kg/day) and liraglutide (0.2 mg/kg/day) (HFD+SANA+LIRA, n=10).\nFIGS. 3A and 3B show graphs of the average mouse weight without treatment (n=9), treatment with SANA (15 mg/kg/day, n=8), treatment with semaglutide (2 nmol/kg/day, n=10), or treatment with a combination of SANA (15 mg/kg/day) and semaglutide (2 nmol/kg/day) (n=10). Mice were fed with a high fat diet (HFD) for 5.5 weeks prior to the initiation of treatment, and the high-fat diet continued during the 3-week treatment period. Referring to FIGS. 3A and 3B, obese mice administered SANA alone (HFD+SANA) or semaglutide alone (HFD+SEMA) experienced an average weight loss of about 5% after three weeks.\nIn a separate experiment, different doses of subcutaneous semaglutide alone were compared to treatment with oral administration of SANA alone, and to treatment with a combination of oral SANA and two different doses of subcutaneous semaglutide. […]"}, "[7]": {"conditions": "obese mice treated with SANA, WO2020058917A1 / US2023346728A1"}},
  "data": [
    {"smiles": "O=C(O)c1cc(/C=C/[N+](=O)[O-])ccc1O", "note": "[SANA, 5-(2-nitroethenyl) salicylic acid]", "values": [
      {"measurement": "cumulative food intake after discontinuation of semaglutide", "setting": "[1]", "value": "remained lower"},
      {"measurement": "fasting glucose, lower", "setting": "[2]", "value": 55, "unit": "%"},
      {"measurement": "regain of weight after discontinuation of semaglutide", "setting": "[3]; SANA 10 mg/kg/day s.c. after 2.5 weeks of semaglutide (40 mg/kg s.c. every 3 days) alone or SANA plus semaglutide, FIG. 6A", "value": "prevented regain of weight"},
      {"measurement": "regain of weight after discontinuation of semaglutide", "setting": "[3]; SANA 200 mg/kg/day PO after 1.5 weeks of semaglutide (10 nmol/kg/day SC) alone or SANA plus semaglutide, FIGS. 6B, 6C", "value": "prevented regain of weight"},
      {"measurement": "drop in serum NEFA levels", "setting": "[4]", "value": "little to no change"},
      {"measurement": "thermogenesis and beiging of white adipose tissue", "setting": "[5]; mice under diet-induced obesity (DIO), by activating creatine-dependent thermogenesis", "value": "stimulates thermogenesis and beiging of white adipose tissue"},
      {"measurement": "fat accretion", "setting": "[5]; [7]", "value": "resistance to fat accretion"},
      {"measurement": "glucose intolerance", "setting": "[5]; [7]", "value": "improved glucose intolerance"},
      {"measurement": "liver steatosis", "setting": "[5]; [7]", "value": "absence of liver steatosis"},
      {"measurement": "response to cold challenge", "setting": "[5]; [7]", "value": "improved response to cold challenge"},
      {"measurement": "average reduction in weight during the treatment period", "setting": "[6]; HFD mice, nine weeks, liraglutide 0.2 mg/kg/day SC or SANA 200 mg/kg/day PO, FIG. 5", "value": 15, "unit": "%"},
      {"measurement": "average weight loss", "setting": "[6]; obese HFD mice, after four weeks, oral SANA 200 mg/kg/day, subcutaneous semaglutide 2 nmol/kg/day, alone or concomitant, FIGS. 3E, 3F", "value": "about 5%"},
      {"measurement": "average weight loss", "setting": "[6]; obese HFD mice, after three weeks, SANA 15 mg/kg/day, semaglutide 2 nmol/kg/day, alone or concomitant, FIGS. 3A, 3B", "value": "about 5%"},
      {"measurement": "weight loss", "setting": "[6]; obese HFD mice, after two weeks, SANA 200 mg/kg/day, liraglutide 0.2 mg/kg/day, alone or concomitant, FIGS. 1A, 1B", "value": "about 10%"}
    ]}
  ]
}
